Calls of active or inactive are those of the source. No cut-off for these calls is given here.
Columns and labels:
Cyperus serotinus [1] = assay: Herbicidal activity against Cyperus serotinus at 500 g /ha treated at 1 to 1.5-leaf stage measured after 26 days by outdoor concrete pot test; format: functional, organism-based
Echinochloa oryzicola [2] = assay: Herbicidal activity against Echinochloa oryzicola under greenhouse condition assessed as growth inhibition at 125 g /ha measured after 33 days; format: functional, organism-based
Echinochloa oryzicola [3] = assay: Herbicidal activity against Echinochloa oryzicola at 500 g /ha treated at 1.5 to 2-leaf stage measured after 26 days by outdoor concrete pot test; format: functional, organism-based
[4] = test system: Schoenoplectiella juncoides; assay: Herbicidal activity against Schoenoplectiella juncoides at 1000 g /ha treated at 1.5 to 2.1-leaf stage measured after 26 days by outdoor concrete pot test; format: functional, organism-based
Echinochloa oryzicola [5] = assay: Herbicidal activity against Echinochloa oryzicola grown in water-drained pot under greenhouse condition assessed as growth inhibition at 125 g /ha measured after 42 days; format: functional, organism-based
Rotala indica [6] = assay: Herbicidal activity against Rotala indica at 1000 g /ha treated at 1 to 2-pairs of leaf stage measured after 26 days by outdoor concrete pot test; format: functional, organism-based
Echinochloa oryzicola [7] = assay: Herbicidal activity against Echinochloa oryzicola under greenhouse condition assessed as growth inhibition at 500 g /ha measured after 20 days; format: functional, organism-based
Oryza sativa = assay: Phytotoxicity against two-leaf stage Oryza sativa cv. Nihonbare (rice) planted 1 cm depth measured after […]; format: organism-based; details: in vivo
Echinochloa oryzicola [8] = assay: Herbicidal activity against Echinochloa oryzicola under greenhouse condition assessed as growth inhibition at 500 g /ha measured after 27 days; format: functional, organism-based
Lindernia procumbens [9] = assay: Herbicidal activity against Lindernia procumbens at 1000 g /ha treated at 1 to 2-pairs of leaf stage measured after 26 days by outdoor concrete pot test; format: functional, organism-based
Echinochloa oryzicola [10] = assay: Herbicidal activity against Echinochloa oryzicola under greenhouse condition assessed as growth inhibition at 1000 g /ha measured after 33 days; format: functional, organism-based
Sagittaria pygmaea [11] = assay: Herbicidal activity against Sagittaria pygmaea at 1000 g /ha treated at 0.5 to 1-leaf stage measured after 26 days by outdoor concrete pot test; format: functional, organism-based
Echinochloa oryzicola [12] = assay: Herbicidal activity against Echinochloa oryzicola under greenhouse condition assessed as time duration of residual effect at 500 g /ha; format: functional
Echinochloa oryzicola [13] = assay: Herbicidal activity against Echinochloa oryzicola under greenhouse condition assessed as growth inhibition at 1000 g /ha measured after 42 days; format: functional, organism-based
Echinochloa oryzicola [14] = assay: Herbicidal activity against Echinochloa oryzicola under greenhouse condition assessed as growth inhibition at 250 g /ha measured after 27 days; format: functional, organism-based
Echinochloa oryzicola [15] = assay: Herbicidal activity against Echinochloa oryzicola grown in water-drained pot under greenhouse condition assessed as growth inhibition at 125 g /ha measured after 13 days; format: functional, organism-based
Echinochloa oryzicola [16] = assay: Herbicidal activity against Echinochloa oryzicola grown in water-drained pot under greenhouse condition assessed as growth inhibition at 500 g /ha measured after 33 days; format: functional, organism-based
Echinochloa oryzicola [17] = assay: Herbicidal activity against Echinochloa oryzicola under greenhouse condition assessed as growth inhibition at 1000 g /ha measured after 13 days; format: functional, organism-based
Echinochloa oryzicola [18] = assay: Herbicidal activity against Echinochloa oryzicola grown in water-drained pot under greenhouse condition assessed as time duration of residual effect at 500 g /ha; format: functional
Lindernia procumbens [19] = assay: Herbicidal activity against Lindernia procumbens at 250 g /ha treated at 1 to 2-pairs of leaf stage measured after 26 days by outdoor concrete pot test; format: functional, organism-based
Echinochloa oryzicola [20] = assay: Herbicidal activity against Echinochloa oryzicola grown in water-drained pot under greenhouse condition assessed as growth inhibition at 500 g /ha measured after 20 days; format: functional, organism-based
Echinochloa oryzicola [21] = assay: Herbicidal activity against Echinochloa oryzicola under greenhouse condition assessed as growth inhibition at 500 g /ha measured after 42 days; format: functional, organism-based
Rotala indica [22] = assay: Herbicidal activity against Rotala indica at 500 g /ha treated at 1 to 2-pairs of leaf stage measured after 26 days by outdoor concrete pot test; format: functional, organism-based
Pontederia vaginalis [23] = assay: Herbicidal activity against Monochoria vaginalis at 500 g /ha treated at 1.5 to 2-leaf stage measured after 26 days by outdoor concrete pot test; format: functional, organism-based
Pontederia vaginalis [24] = assay: Herbicidal activity against Monochoria vaginalis at 250 g /ha treated at 1.5 to 2-leaf stage measured after 26 days by outdoor concrete pot test; format: functional, organism-based
Echinochloa oryzicola [25] = assay: Herbicidal activity against Echinochloa oryzicola grown in water-drained pot under greenhouse condition assessed as growth inhibition at 500 g /ha measured after 6 days; format: functional, organism-based
Echinochloa oryzicola [26] = assay: Herbicidal activity against Echinochloa oryzicola at 1000 g /ha treated at 1.5 to 2-leaf stage measured after 26 days by outdoor concrete pot test; format: functional, organism-based
Echinochloa oryzicola [27] = assay: Herbicidal activity against Echinochloa oryzicola grown in water-drained pot under greenhouse condition assessed as growth inhibition at 125 g /ha measured after 33 days; format: functional, organism-based
Echinochloa oryzicola [28] = assay: Herbicidal activity against Echinochloa oryzicola under greenhouse condition assessed as growth inhibition at 250 g /ha measured after 42 days; format: functional, organism-based
Echinochloa oryzicola [29] = assay: Herbicidal activity against Echinochloa oryzicola under greenhouse condition assessed as growth inhibition at 1000 g /ha measured after 6 days; format: functional, organism-based
Echinochloa oryzicola [30] = assay: Herbicidal activity against Echinochloa oryzicola under greenhouse condition assessed as growth inhibition at 125 g /ha measured after 13 days; format: functional, organism-based
Echinochloa oryzicola [31] = assay: Herbicidal activity against Echinochloa oryzicola under greenhouse condition assessed as growth inhibition at 500 g /ha measured after 33 days; format: functional, organism-based
Sagittaria pygmaea [32] = assay: Herbicidal activity against Sagittaria pygmaea at 500 g /ha treated at 0.5 to 1-leaf stage measured after 26 days by outdoor concrete pot test; format: functional, organism-based
Sagittaria pygmaea [33] = assay: Herbicide activity against Sagittaria pygmaea under greenhouse condition compound treated at 0.5 leaf-stage measured after 14 to 20 days; format: functional
Echinochloa oryzicola [34] = assay: Herbicidal activity against Echinochloa oryzicola under greenhouse condition assessed as growth inhibition at 250 g /ha measured after 20 days; format: functional, organism-based
Cyperus serotinus [35] = assay: Herbicidal activity against Cyperus serotinus at 1000 g /ha treated at 1 to 1.5-leaf stage measured after 26 days by outdoor concrete pot test; format: functional, organism-based
Echinochloa oryzicola [36] = assay: Herbicidal activity against Echinochloa oryzicola grown in water-drained pot under greenhouse condition assessed as time duration of residual effect at 125 g /ha; format: functional
Cyperus serotinus [37] = assay: Herbicidal activity against Cyperus serotinus at 250 g /ha treated at 1 to 1.5-leaf stage measured after 26 days by outdoor concrete pot test; format: functional, organism-based
Echinochloa oryzicola [38] = assay: Herbicidal activity against Echinochloa oryzicola under greenhouse condition assessed as growth inhibition at 1000 g /ha measured after 20 days; format: functional, organism-based
Echinochloa oryzicola [39] = assay: Herbicidal activity against Echinochloa oryzicola at 250 g /ha treated at 1.5 to 2-leaf stage measured after 26 days by outdoor concrete pot test; format: functional, organism-based
Sagittaria pygmaea [40] = assay: Herbicidal activity against Sagittaria pygmaea at 250 g /ha treated at 0.5 to 1-leaf stage measured after 26 days by outdoor concrete pot test; format: functional, organism-based
Echinochloa oryzicola [41] = assay: Herbicidal activity against Echinochloa oryzicola under greenhouse condition assessed as growth inhibition at 1000 g /ha measured after 27 days; format: functional, organism-based
[42] = test system: Schoenoplectiella juncoides; assay: Herbicide activity against Schoenoplectiella juncoides under greenhouse condition compound treated at emergence-stage measured after 14 to 20 days; format: functional
Echinochloa oryzicola [43] = assay: Herbicidal activity against Echinochloa oryzicola under greenhouse condition assessed as growth inhibition at 500 g /ha measured after 6 days; format: functional, organism-based
Echinochloa oryzicola [44] = assay: Herbicidal activity against Echinochloa oryzicola under greenhouse condition assessed as time duration of residual effect at 125 g /ha; format: functional
Echinochloa oryzicola [45] = assay: Herbicidal activity against Echinochloa oryzicola under greenhouse condition assessed as growth inhibition at 125 g /ha measured after 6 days; format: functional, organism-based

CC1=C(c2ccccc2)C(=O)N(C(C)(C)c2nc3ccccc3s2)C1
growth inhibition (GI) (Cyperus serotinus [1]): Active | growth inhibition (GI) (Echinochloa oryzicola [2]): Active | growth inhibition (GI) (Echinochloa oryzicola [3]): Active | growth inhibition (GI) [4]: inactive | growth inhibition (GI) (Echinochloa oryzicola [5]): inactive | growth inhibition (GI) (Rotala indica [6]): Active | growth inhibition (GI) (Echinochloa oryzicola [7]): Active | MTD (Oryza sativa): 2.5 g/acre | growth inhibition (GI) (Echinochloa oryzicola [8]): Active | growth inhibition (GI) (Lindernia procumbens [9]): Active | growth inhibition (GI) (Echinochloa oryzicola [10]): Active | growth inhibition (GI) (Sagittaria pygmaea [11]): Active | Time (Echinochloa oryzicola [12]): >42 days | growth inhibition (GI) (Echinochloa oryzicola [13]): Active | growth inhibition (GI) (Echinochloa oryzicola [14]): inactive | growth inhibition (GI) (Echinochloa oryzicola [15]): Active | growth inhibition (GI) (Echinochloa oryzicola [16]): Active | growth inhibition (GI) (Echinochloa oryzicola [17]): Active | Time (Echinochloa oryzicola [18]): >42 days | growth inhibition (GI) (Lindernia procumbens [19]): Active | growth inhibition (GI) (Echinochloa oryzicola [20]): Active | growth inhibition (GI) (Echinochloa oryzicola [21]): Active | growth inhibition (GI) (Rotala indica [22]): Active | growth inhibition (GI) (Pontederia vaginalis [23]): Active | growth inhibition (GI) (Pontederia vaginalis [24]): inactive | growth inhibition (GI) (Echinochloa oryzicola [25]): Active | growth inhibition (GI) (Echinochloa oryzicola [26]): Active | growth inhibition (GI) (Echinochloa oryzicola [27]): inactive | growth inhibition (GI) (Echinochloa oryzicola [28]): inactive | growth inhibition (GI) (Echinochloa oryzicola [29]): Active | growth inhibition (GI) (Echinochloa oryzicola [30]): Active | growth inhibition (GI) (Echinochloa oryzicola [31]): Active | growth inhibition (GI) (Sagittaria pygmaea [32]): Active | MED (Sagittaria pygmaea [33]): 20 g/acre | growth inhibition (GI) (Echinochloa oryzicola [34]): Active | growth inhibition (GI) (Cyperus serotinus [35]): Active | Time (Echinochloa oryzicola [36]): 27 days | growth inhibition (GI) (Cyperus serotinus [37]): Active | growth inhibition (GI) (Echinochloa oryzicola [38]): Active | growth inhibition (GI) (Echinochloa oryzicola [39]): Active | growth inhibition (GI) (Sagittaria pygmaea [40]): inactive | growth inhibition (GI) (Echinochloa oryzicola [41]): Active | MED [42]: 20 g/acre | growth inhibition (GI) (Echinochloa oryzicola [43]): Active | Time (Echinochloa oryzicola [44]): 30 days | growth inhibition (GI) (Echinochloa oryzicola [45]): Active

Source: ChEMBL document CHEMBL3046147, “Synthesis and Herbicidal Activity of 1-Arylalkyl-3-pyrrolin-2-one Derivatives” (J Pestic Sci, 2000)
